Results taken from patent US12421249B2, “Inhibitors of APOL1 and methods of using same” (Vertex Pharmaceuticals Incorporated, priority 2020, dated 2025).
Like-named read-outs stand apart in the source and are kept apart here.

Key:
APOL1 G1 = target: T1, APOL1 G1 (Homo sapiens, UniProt O14791, I384M/S342G); assay: Trypanosoma brucei brucei Lysis Assay Using APOL1 Recombinant Protein (AlamarBlue viability readout); format: cell-based; conditions: for IC50: IP50 = IC50 for cell proliferation, read-out: Trypanosome Assay IP50; for Emax: read-out: Trypanosome Assay Max Activity (%)
T1 sequence (O14791 28-398 S342G/I384M): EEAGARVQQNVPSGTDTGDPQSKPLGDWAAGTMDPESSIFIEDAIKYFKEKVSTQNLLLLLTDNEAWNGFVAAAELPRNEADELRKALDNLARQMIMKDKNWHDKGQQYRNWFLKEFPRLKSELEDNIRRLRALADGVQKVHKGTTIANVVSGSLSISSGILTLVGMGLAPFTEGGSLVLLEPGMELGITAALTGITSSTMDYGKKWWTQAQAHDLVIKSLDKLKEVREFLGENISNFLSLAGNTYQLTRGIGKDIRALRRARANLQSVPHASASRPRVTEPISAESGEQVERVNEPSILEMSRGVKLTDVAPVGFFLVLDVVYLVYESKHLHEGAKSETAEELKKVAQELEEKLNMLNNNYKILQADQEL
How it was run: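 Percent viability comes from AlamarBlue (resazurin→resorufin) fluorescence interpolated on a standard curve of known parasite numbers, with no-APOL1 wells as 100%. Parasites (Lister 427 bloodstream form, 120,000/well, serum-free assay medium) meet 0.05 μg/mL APOL1 (~EC90). Compounds span a 10-point series, 0.1% DMSO final.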

APOL1 = target: T2, APOL1 (Homo sapiens, UniProt O14791); assay: Multi-Tox Assay (MultiTox-Fluor Multiplex Cytotoxicity Assay in tet-inducible APOL1 T-REx-HEK293 cells; Table 46 does not say which APOL1 variant G0/G1/G2); format: cell-based; conditions: APOL1 variant not given; for IC50: IP50 = IC50 for cell proliferation
T2 sequence (O14791 1-398 S342G/I384M): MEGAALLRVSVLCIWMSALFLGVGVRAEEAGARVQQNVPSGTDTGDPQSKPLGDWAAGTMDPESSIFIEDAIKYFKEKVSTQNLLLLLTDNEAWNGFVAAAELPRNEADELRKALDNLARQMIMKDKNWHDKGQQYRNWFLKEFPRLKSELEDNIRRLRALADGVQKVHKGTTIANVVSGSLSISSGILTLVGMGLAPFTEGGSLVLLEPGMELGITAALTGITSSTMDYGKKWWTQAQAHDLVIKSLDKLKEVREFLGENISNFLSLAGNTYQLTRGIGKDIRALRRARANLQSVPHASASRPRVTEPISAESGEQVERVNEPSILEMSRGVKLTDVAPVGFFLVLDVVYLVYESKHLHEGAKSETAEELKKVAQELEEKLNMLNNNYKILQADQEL

SMILES	IC50 (APOL1 G1; Trypanosome Assay)	Emax (APOL1 G1)	IC50 (APOL1)	Emax (APOL1 G1; Trypanosome Assay)	Trypanosome Assay Max Activity (%) (APOL1 G1; Trypanosome Assay)	IC90 (APOL1)	Multi-Tox Assay Max Activity (%) (APOL1)
C[C@@H]1CC2(C[C@H](C)N1)OCCc1cc(Cl)sc12 (single isomer, unassigned) [Compound 204]	0.05 to 0.5 µM	112%	0.05 to 0.5 µM	–	–	–	–
Clc1cc2c(s1)C1(C[C@@H](C3CC3)N[C@@H](C3CC3)C1)OCC2 (single isomer, unassigned) [Compound 206]	0.05 to 0.5 µM	–	< 0.05 µM	104%	–	–	–
C[C@@H]1CC2(C[C@H](C)N1)OCCc1cc(C(F)(F)F)sc12 (single isomer, unassigned) [Compound 207]	< 0.05 µM	–	< 0.05 µM	108%	–	–	–
C[C@@H]1CC2(C[C@H](C)N1)OCCc1c2sc(C(F)(F)F)c1CO (single isomer, unassigned) [Compound 208]	0.05 to 0.5 µM	–	< 0.05 µM	103%	–	–	–
CC1CC2(CC(C3CC3(F)F)N1)OCCc1cc(Cl)sc12 (single isomer, unassigned) [Compound 212]	< 0.05 µM	–	< 0.05 µM	101%	–	–	–
CC1CC2(CC(C3CC3(F)F)N1)OCCc1cc(Cl)sc12 (single isomer, unassigned) [Compound 213]	0.05 to 0.5 µM	–	0.05 to 0.5 µM	–	98.7%	0.05 to 0.5 µM	99.5%
Cc1cc2c(s1)C1(C[C@@H](c3cn(C)nn3)N[C@@H](C)C1)OCC2 (stereo in doubt) [Compound 3]	< 0.05 µM	–	< 0.05 µM	107%	–	–	–
CCc1cc2c(s1)CCOC21C[C@@H](c2cn(C)nn2)N[C@@H](C)C1 (stereo in doubt) [Compound 4]	< 0.05 µM	–	< 0.05 µM	118%	–	–	–
CCc1cc2c(s1)CCO[C@@]21C[C@@H](c2cnn(CCS(C)(=O)=O)c2)N[C@@H](C)C1 (stereo in doubt) [Compound 5]	0.05 to 0.5 µM	–	0.05 to 0.5 µM	111%	–	–	100.0%
CCc1cc2c(s1)C1(C[C@@H](c3cn(C)nn3)N[C@@H](C)C1)OCC2 (stereo in doubt) [Compound 6]	< 0.05 µM	–	< 0.05 µM	102%	–	–	–
CCc1cc2c(s1)C(C)COC21C[C@@H](c2cn(C)nn2)N[C@@H](C)C1 (stereo in doubt) [Compound 10]	0.05 to 0.5 µM	–	< 0.05 µM	101%	–	–	99.7%
CCc1cc2c(s1)C(C)COC21C[C@@H](c2cn(C)nn2)N[C@@H](C)C1 (stereo in doubt) [Compound 11]	< 0.05 µM	–	< 0.05 µM	–	101.5%	< 0.05 µM	99.3%
CC1COC2(C[C@@H](c3cn(C)nn3)N[C@@H](C)C2)c2cc(Cl)sc21 (stereo in doubt) [Compound 12]	< 0.05 µM	–	< 0.05 µM	102%	–	–	99.3%
CC1COC2(C[C@@H](c3cn(C)nn3)N[C@@H](C)C2)c2cc(Cl)sc21 (stereo in doubt) [Compound 13]	< 0.05 µM	–	< 0.05 µM	–	100.0%	< 0.05 µM	99.0%
CC1COC2(C[C@@H](c3cn(C)nn3)N[C@@H](C)C2)c2cc(C(F)(F)F)sc21 (stereo in doubt) [Compound 14]	< 0.05 µM	–	< 0.05 µM	102%	–	–	–
C[C@H]1CC2(C[C@@H](c3cn(C)nn3)N1)OCC(C)(C)c1sc(Cl)cc12 (stereo in doubt) [Compound 15]	< 0.05 µM	–	< 0.05 µM	101%	–	–	99.0%
C[C@H]1CC2(C[C@@H](c3cn(C)nn3)N1)OCC(C)(C)c1sc(C(F)(F)F)cc12 (stereo in doubt) [Compound 16]	0.05 to 0.5 µM	–	< 0.05 µM	99.5%	–	–	100.0%
C[C@H]1C[C@@]2(C[C@@H](c3ccc(O)c(F)c3)N1)OCCc1cc(Cl)sc12 (stereo in doubt) [Compound 51]	< 0.05 µM	–	< 0.05 µM	102%	–	–	99.7%
C[C@H]1C[C@@]2(C[C@@H](c3cnc(-c4cnn(C)c4)nc3)N1)OCCc1cc(Cl)sc12 (stereo in doubt) [Compound 61]	< 0.05 µM	–	< 0.05 µM	105%	–	–	–
C[C@H]1C[C@@]2(C[C@@H](c3ccc(O)nn3)N1)OCCc1cc(Cl)sc12 (stereo in doubt) [Compound 86]	< 0.05 µM	–	< 0.05 µM	112%	–	–	–
CCc1cc([C@@H]2C[C@]3(C[C@H](C)N2)OCCc2cc(Cl)sc23)on1 (stereo in doubt) [Compound 91]	< 0.05 µM	–	< 0.05 µM	110%	–	–	–
C[C@H]1C[C@@]2(C[C@@H](c3cnn(C4CCS(=O)(=O)C4)c3)N1)OCCc1cc(Cl)sc12 (stereo in doubt) [Compound 97]	< 0.05 µM	–	< 0.05 µM	104%	–	–	–
C[C@H]1C[C@@]2(C[C@@H](c3cc(C4CCOCC4)[nH]n3)N1)OCCc1cc(Cl)sc12 (stereo in doubt) [Compound 114]	0.05 to 0.5 µM	–	< 0.05 µM	95%	–	–	99.7%
C[C@H]1C[C@@]2(C[C@@H](c3cc(C(F)(F)F)[nH]n3)N1)OCCc1cc(Cl)sc12 (stereo in doubt) [Compound 119]	0.05 to 0.5 µM	–	< 0.05 µM	97.5%	–	–	99.7%
C[C@H]1C[C@@]2(C[C@@H](c3cccn4ccnc34)N1)OCCc1cc(Cl)sc12 (stereo in doubt) [Compound 143]	0.05 to 0.5 µM	–	0.05 to 0.5 µM	101%	–	–	98.0%
C[C@H]1CC2(CC(c3cn(C)cn3)N1)OCC(O)c1cc(Cl)sc12 (stereo in doubt) [Compound 178]	< 0.05 µM	–	< 0.05 µM	101%	–	–	–
C[C@H]1CC2(CC(c3cn(C)cn3)N1)OCC(O)c1cc(Cl)sc12 (stereo in doubt) [Compound 179]	< 0.05 µM	–	< 0.05 µM	–	119.5%	< 0.05 µM	99.0%
C[C@H]1C[C@@]2(C[C@@H](c3cn(C)nn3)N1)OCCc1cc(Cl)sc12 [Compound 1, (2′S,6′S,7S)-2-chloro-2′-methyl-6′-(1-methyltriazol-4-yl)spiro[4,5-dihydrothieno[2,3-c]pyran-7,4′-piperidine]]	< 0.05 µM	–	< 0.05 µM	124%	–	–	–
C[C@H]1C[C@@]2(C[C@@H](c3cn(C)nn3)N1)OCCc1cc(C(F)(F)F)sc12 [Compound 2, (2′S,6′S,7S)-2′-methyl-6′-(1-methyltriazol-4-yl)-2-(trifluoromethyl)spiro[4,5-dihydrothieno[2,3-c]pyran-7,4′-piperidine]]	< 0.05 µM	–	< 0.05 µM	117%	–	–	–
C[C@H]1C[C@@]2(C[C@@H](c3cn(C)nn3)N1)OCCc1sc(C(F)(F)F)cc12 [Compound 8, (2′S,4S,6′S)-2′-methyl-6′-(1-methyltriazol-4-yl)-2-(trifluoromethyl)spiro[6,7-dihydrothieno[3,2-c]pyran-4,4′-piperidine]]	0.05 to 0.5 µM	–	< 0.05 µM	106%	–	–	100.0%
